Source: patent US20110172223A1, “Substituted Aryl Sulfone Derivatives as Calcium Channel Blockers” (priority 2008, published 2011)

Columns and labels:
Human Cav2.2 channels = molecular target: T1, Human Cav2.2 channels (Homo sapiens, UniProt Q00975); assay: Fluorescent assay for Cav2.2 channels using potassium depolarization to initiate channel opening (Assay Example 1); type: cell-based; conditions: Table 2
T1 construct: expressed in transfected cells
Text: Fluorescent Assay for Cav2.2 Channels Using Potassium Depolarization to Initiate Channel Opening
(§1) Human Cav2.2 channels were stably expressed in KEK293 cells along with alpha2-delta and beta subunits of voltage-gated calcium channels. An inwardly rectifying potassium channel (Kir2.3) was also expressed in these cells to allow more precise control of the cell membrane potential by extracellular potassium concentration. At low bath potassium concentration, the membrane potential is relatively negative, and is depolarized as the bath potassium concentration is raised. In this way, the bath potassium concentration can be used to regulate the voltage-dependent conformations of the channels. […]
(§2) Calcium influx through Cav2.2 channels is determined using a calcium-sensitive fluorescent dye in combination with a fluorescent plate reader. Fluorescent changes were measured with either a VIPR (Aurora Instruments) or FLIPR (Molecular Devices) plate reader.
(§3) • 1. […] Read cell plate on VIPR instrument, Excitation=480 nm, Emission=535 nm • 9. With VIPR continuously reading, add 0.1 ml (96-well plate) or 0.03 ml (384-well plate) of Depolarization Buffer, which is 2× the final assay concentration, to the cell plate.

[1] = molecular target: T2, N-type calcium channel (CaV2.2) (Homo sapiens, UniProt Q00975); assay: N-type calcium channel antagonist activity in the aforementioned assays (Assay Examples 1-3: fluorescent, IonWorks HT, PatchXpress/manual patch clamp); type: cell-based; conditions: antagonizing the N-type calcium channel; which of Assay Examples 1-3 is not specified
T2 construct: expressed in transfected cells
Text: as §1, §2, §3
Block of N-type calcium channels is evaluated utilizing the IonWorks HT 384 well automated patch clamp electrophysiology device. […]

T1 sequence (Q00975 whole entry): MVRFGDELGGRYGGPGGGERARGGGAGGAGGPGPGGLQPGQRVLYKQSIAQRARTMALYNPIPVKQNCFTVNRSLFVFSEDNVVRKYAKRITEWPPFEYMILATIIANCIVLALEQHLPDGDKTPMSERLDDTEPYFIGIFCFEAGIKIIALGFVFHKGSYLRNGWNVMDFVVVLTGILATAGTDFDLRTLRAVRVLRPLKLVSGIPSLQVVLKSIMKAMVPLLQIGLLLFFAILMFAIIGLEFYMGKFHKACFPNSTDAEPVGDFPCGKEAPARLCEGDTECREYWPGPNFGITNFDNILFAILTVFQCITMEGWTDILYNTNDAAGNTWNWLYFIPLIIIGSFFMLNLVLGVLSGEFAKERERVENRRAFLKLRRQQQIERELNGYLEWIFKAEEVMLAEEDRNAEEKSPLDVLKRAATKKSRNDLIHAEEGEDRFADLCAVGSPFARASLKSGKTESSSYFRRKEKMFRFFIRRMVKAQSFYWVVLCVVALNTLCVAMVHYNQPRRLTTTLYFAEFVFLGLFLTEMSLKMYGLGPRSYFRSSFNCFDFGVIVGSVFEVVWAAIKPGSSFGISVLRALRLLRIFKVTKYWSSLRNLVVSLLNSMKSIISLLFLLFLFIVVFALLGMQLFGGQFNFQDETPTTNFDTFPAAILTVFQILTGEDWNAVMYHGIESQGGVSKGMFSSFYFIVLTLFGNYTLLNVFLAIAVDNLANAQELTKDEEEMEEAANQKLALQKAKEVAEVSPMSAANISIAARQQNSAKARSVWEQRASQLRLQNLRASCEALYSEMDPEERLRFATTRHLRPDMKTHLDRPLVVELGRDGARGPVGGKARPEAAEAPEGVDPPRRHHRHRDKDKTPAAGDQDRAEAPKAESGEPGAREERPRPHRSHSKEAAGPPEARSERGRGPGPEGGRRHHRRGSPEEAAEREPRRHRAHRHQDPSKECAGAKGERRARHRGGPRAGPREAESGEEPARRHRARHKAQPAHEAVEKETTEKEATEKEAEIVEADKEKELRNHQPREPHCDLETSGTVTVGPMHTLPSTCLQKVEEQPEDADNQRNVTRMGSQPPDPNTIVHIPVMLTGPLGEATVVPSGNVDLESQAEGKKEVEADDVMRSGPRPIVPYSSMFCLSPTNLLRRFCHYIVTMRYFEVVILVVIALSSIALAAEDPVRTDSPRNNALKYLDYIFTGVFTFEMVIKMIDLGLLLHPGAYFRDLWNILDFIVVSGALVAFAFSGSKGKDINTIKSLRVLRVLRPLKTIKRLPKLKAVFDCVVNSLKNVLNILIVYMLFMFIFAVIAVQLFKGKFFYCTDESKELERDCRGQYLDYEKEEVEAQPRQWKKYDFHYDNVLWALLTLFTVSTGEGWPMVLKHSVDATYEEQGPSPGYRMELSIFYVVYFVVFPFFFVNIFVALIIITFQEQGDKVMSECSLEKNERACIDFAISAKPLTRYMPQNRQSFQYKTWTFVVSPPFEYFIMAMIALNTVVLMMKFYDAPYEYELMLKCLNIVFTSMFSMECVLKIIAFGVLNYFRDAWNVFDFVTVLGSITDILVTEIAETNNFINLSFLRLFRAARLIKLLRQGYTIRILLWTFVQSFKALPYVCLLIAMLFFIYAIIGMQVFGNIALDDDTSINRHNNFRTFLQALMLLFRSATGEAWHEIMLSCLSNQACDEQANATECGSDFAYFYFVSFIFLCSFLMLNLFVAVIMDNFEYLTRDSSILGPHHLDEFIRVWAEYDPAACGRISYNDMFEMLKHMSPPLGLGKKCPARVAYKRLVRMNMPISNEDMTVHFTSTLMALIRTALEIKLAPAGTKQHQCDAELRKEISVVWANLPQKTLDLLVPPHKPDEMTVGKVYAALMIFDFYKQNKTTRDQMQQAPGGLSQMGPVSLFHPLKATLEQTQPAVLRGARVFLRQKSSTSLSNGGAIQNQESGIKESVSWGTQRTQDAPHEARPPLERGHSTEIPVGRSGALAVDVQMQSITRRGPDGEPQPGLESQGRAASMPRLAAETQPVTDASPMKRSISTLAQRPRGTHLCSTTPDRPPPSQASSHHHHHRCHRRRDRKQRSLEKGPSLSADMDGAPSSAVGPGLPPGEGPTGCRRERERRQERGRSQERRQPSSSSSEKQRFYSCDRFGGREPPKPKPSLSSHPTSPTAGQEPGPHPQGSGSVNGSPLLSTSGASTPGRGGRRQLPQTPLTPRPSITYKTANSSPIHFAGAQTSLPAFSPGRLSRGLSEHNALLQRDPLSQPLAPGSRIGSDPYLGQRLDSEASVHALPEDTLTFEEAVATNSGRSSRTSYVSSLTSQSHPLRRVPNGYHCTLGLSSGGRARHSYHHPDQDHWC
T1 sequence (P54289 25-946 partner limits assumed): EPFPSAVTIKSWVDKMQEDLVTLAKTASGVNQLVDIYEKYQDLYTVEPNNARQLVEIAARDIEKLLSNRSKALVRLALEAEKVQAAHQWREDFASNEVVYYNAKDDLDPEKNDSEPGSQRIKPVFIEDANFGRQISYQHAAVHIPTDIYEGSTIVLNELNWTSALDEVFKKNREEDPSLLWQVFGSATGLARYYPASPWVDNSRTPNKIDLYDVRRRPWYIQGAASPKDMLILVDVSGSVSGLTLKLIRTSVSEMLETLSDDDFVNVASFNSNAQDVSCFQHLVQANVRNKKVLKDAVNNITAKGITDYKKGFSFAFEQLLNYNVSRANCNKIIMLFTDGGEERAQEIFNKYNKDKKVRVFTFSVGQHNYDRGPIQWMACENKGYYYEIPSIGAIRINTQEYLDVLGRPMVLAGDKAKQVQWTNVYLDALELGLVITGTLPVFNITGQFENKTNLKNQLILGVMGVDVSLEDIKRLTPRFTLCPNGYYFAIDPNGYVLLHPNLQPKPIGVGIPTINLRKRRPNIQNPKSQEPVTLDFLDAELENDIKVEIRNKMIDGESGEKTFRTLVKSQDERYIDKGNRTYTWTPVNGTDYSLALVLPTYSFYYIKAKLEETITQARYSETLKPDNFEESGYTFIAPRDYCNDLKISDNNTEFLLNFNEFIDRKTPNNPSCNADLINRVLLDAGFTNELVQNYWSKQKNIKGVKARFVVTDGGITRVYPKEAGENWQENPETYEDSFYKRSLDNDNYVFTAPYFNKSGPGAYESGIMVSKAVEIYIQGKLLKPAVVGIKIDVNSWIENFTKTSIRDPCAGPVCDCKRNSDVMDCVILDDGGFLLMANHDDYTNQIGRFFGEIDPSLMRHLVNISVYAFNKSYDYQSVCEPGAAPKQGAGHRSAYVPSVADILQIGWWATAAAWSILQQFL
T1 sequence (P54289 947-1103 partner limits assumed): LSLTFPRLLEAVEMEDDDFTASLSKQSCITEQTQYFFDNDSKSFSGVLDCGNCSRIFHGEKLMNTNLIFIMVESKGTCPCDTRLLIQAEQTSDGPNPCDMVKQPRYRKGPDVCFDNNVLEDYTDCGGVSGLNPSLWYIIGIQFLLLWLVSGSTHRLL
T1 sequence (P54284 whole entry partner): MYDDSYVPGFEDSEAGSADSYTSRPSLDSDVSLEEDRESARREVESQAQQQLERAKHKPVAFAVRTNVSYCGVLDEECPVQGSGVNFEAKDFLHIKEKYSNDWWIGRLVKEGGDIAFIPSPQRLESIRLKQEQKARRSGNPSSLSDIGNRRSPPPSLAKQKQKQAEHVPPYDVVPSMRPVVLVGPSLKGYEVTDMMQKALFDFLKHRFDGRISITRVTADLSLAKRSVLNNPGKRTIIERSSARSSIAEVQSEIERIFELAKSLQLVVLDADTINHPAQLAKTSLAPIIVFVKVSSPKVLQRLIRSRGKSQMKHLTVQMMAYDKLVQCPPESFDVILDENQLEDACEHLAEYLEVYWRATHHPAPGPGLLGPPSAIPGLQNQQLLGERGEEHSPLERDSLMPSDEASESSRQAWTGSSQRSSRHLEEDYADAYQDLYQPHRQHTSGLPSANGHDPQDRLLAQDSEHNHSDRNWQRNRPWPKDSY
T2 sequence (Q00975 whole entry): as the sequence (Q00975 whole entry) above
T2 sequence (P54289 25-946 partner limits assumed): as the sequence (P54289 25-946 partner limits assumed) above
T2 sequence (P54289 947-1103 partner limits assumed): as the sequence (P54289 947-1103 partner limits assumed) above
T2 sequence (P54284 whole entry partner): as the sequence (P54284 whole entry partner) above

`CC(C)([C@H]1CN(c2ccc(C(F)(F)F)cn2)C(=O)CO1)S(=O)(=O)c1cccc(C(F)(F)F)c1` [drawing 26] showed an IC50 (Human Cav2.2 channels) of 1510 nM.
With `CC(C)(C1CN(c2ccc(C(F)(F)F)cc2)C(=O)O1)S(=O)(=O)c1cccc(C(F)(F)F)c1` (stereo not drawn) the IC50 (Human Cav2.2 channels) was 745 nM.
`CC(C)([C@H]1CN(c2ccc(C(F)(F)F)cn2)C(=O)CO1)S(=O)(=O)c1cccc(C(F)(F)F)c1` [Example 6, (6R)-6-(1-methyl-1-{[3-(trifluoromethyl)phenyl]sulfonyl}ethyl)-4-[5-(trifluoromethyl)pyridin-2-yl]morpholin-3-one] was tested, and the IC50 [1] was 1520 nM.
